According to US12473282B2, “Biphenyl fluorine double bond derivative, preparation method therefor, and pharmaceutical application thereof” (Abbisko Therapeutics Co., Ltd., priority 2020, dated 2025):

Experiment: Jurkat reporter gene cellular assay
Type: cell-based
Settings: Homo sapiens; Jurkat/NF-κB-luc/PD1 + Raji-PD-L1 coculture, OKT3 1 μg/mL, 6 hrs, activation fold; read-out: Cell Activity EC50
Method: The effect of compounds of the examples of the present invention and positive compounds on the interaction between PD-1 and PD-L1 expressed on cell surfaces, and the related influence on T cell functions, were determined by a Jurkat reporter gene cellular assay.
Briefly, the reporter gene plasmid of NF-κB-luc and the plasmid of human PD-1 were transfected into Jurkat cells to establish a stably transfected cell line capable of stably expressing both PD-1 and NF-κB-Luc reporter genes; the expression level of PD-1 on the cell surface was confirmed by flow cytometry; and the expression of the reporter gene was confirmed via the response of the reporter gene stimulated by OKT-3 and Raiji cells.
In addition, the plasmid of human PD-L1 was transfected into Raji cells to obtain a cell line capable of stably expressing PD-L1. Jurkat/NF-κB-luc/PD1 cells and Raji-PD-L1 cells were then cocultured and stimulated with OKT-3. On this basis, the compounds were added, and the enhancement of the signal pathway of T cell activation by the inhibitory effect of the compounds on the interaction between PD-1 and PD-L1 was evaluated by readings of reporter gene responses. The specific experimental process was as follows: • 1. 30 μL of compound or antibody solution was added to each well of a white 96-well plate (corning, 3610) at different diluted concentrations, and 10 μL of OKT3 (Biolegend, 317326) was then added (the final concentration of OKT3: 1 μg/mL); • 2. 20 μL of Raji-PD-L1 cell suspension was added to each well with 5*10^4 cells for each well, and was incubated in an incubator for 20 min; • 3. 20 μL of Jurkat/NF-Kb-luc/PD-1 cell suspension was added to each well with 5*10^4 cells for each well, and well mixed, and 6 hrs later, Bright-glo (Promega, E2620) was applied and plates were read on Envision; • 4. The reading of each well treated with the compound was compared with the reading of each well treated with DMSO to obtain the activation fold of the compound; • 5. EC50 values of compounds and positive compounds of the examples of the present invention were determined by non-linear regression analysis of activation folds at different compound concentrations.

Structure (SMILES) | EC50 [nM]
COc1cc(/C(F)=C/c2cccc(-c3cccc(NC(=O)c4nc5c(n4C)CCN(CCC46CCC(C(=O)O)(CC4)C6)C5)c3Cl)c2Cl)ncc1CNC12CC3CC(CC(C3)C1)C2 [Example 53, (Z)-4-(2-(2-((3′-(2-(5-((adamantan-1-ylamino)methyl)-4-methoxypyridin-2-yl)-2-fluorovinyl)-2,2′-dichloro-[1,1′-biphenyl]-3-yl)carbamoyl)-1-methyl-1,4,6,7-tetrahydro-5H-imidazo[4,5-c]pyridin-5-yl)ethyl)bicyclo[2.2.1]heptane-1-carboxylic acid] | 1040
COc1cc(/C(F)=C/c2cccc(-c3cccc(NC(=O)c4nc5c(n4C)CCN(CCC46CCC(C(=O)O)(CC4)C6)C5)c3Cl)c2Cl)ncc1CN(C)CCN(C)C [Example 54, (Z)-4-(2-(2-((2,2′-dichloro-3′-(2-(5-(((2-(dimethylamino)ethyl)(methyl)amino)methyl)-4-methoxypyridin-2-yl)-2-fluorovinyl)-[1,1′-biphenyl]-3-yl)carbamoyl)-1-methyl-1,4,6,7-tetrahydro-5H-imidazo [4,5-c]pyridin-5-yl)ethyl)bicyclo[2.2.1]heptane-1-carboxylic acid] | 250
COc1cc(/C(F)=C/c2cccc(-c3cccc(NC(=O)c4nc5c(n4C)CCN(CCC46CCC(C(=O)O)(CC4)C6)C5)c3Cl)c2Cl)ncc1CN1CCC2(CCC2)C1 [Example 55, (Z)-4-(2-(2-((3′-(2-(5-((6-azaspiro[3.4]octan-6-yl)methyl)-4-methoxypyridin-2-yl)-2-fluorovinyl)-2,2′-dichloro-[1,1′-biphenyl]-3-yl)carbamoyl)-1-methyl-1,4,6,7-tetrahydro-5H-imidazo[4,5-c]pyridin-5-yl)ethyl)bicyclo[2.2.1]heptane-1-carboxylic acid] | 149
COc1cc(/C(F)=C/c2cccc(-c3cccc(NC(=O)c4nc5c(n4C)CCN(CCC46CCC(C(=O)O)(CC4)C6)C5)c3Cl)c2Cl)ncc1CN1CCC(O)(C(F)(F)F)C1 (stereo not drawn) [Example 61, (Z)-4-(2-(2-((2,2′-dichloro-3′-(2-fluoro-2-(5-((3-hydroxy-3-(trifluoromethyl)pyrrolidin-1-yl)methyl)-4-methoxypyridin-2-yl)vinyl)-[1,1′-biphenyl]-3-yl)carbamoyl)-1-methyl-1,4,6,7-tetrahydro-5H-imidazo [4,5-c]pyridin-5-yl)ethyl)bicyclo[2.2.1]heptane-1-carboxylic acid] | 522
COc1cc(/C(F)=C/c2cccc(-c3cccc(NC(=O)c4nc5c(n4C)CCN(CCC46CCC(C(=O)O)(CC4)C6)C5)c3Cl)c2Cl)ncc1CN(C)C(C)C [Example 63, (Z)-4-(2-(2-((2,2′-dichloro-3′-(2-fluoro-2-(5-((isopropyl(methyl)amino)methyl)-4-methoxypyridin-2-yl)vinyl)-[1,1′-biphenyl]-3-yl)carbamoyl)-1-methyl-1,4,6,7-tetrahydro-5H-imidazo[4,5-c]pyridin-5-yl)ethyl)bicyclo[2.2.1]heptane-1-carboxylic acid] | 159
COc1cc(/C(F)=C/c2cccc(-c3cccc(NC(=O)c4nc5c(n4C)CCN(CCC46CCC(C(=O)O)(CC4)C6)C5)c3Cl)c2Cl)ncc1CN1CC[C@@H](N(C)C)C1 [Example 66, (R,Z)-4-(2-(2-((2,2′-dichloro-3′-(2-(5-((3-(dimethylamino)pyrrolidin-1-yl)methyl)-4-methoxypyridin-2-yl)-2-fluorovinyl)-[1,1′-biphenyl]-3-yl)carbamoyl)-1-methyl-1,4,6,7-tetrahydro-5H-imidazo[4,5-c]pyridin-5-yl)ethyl)bicyclo[2.2.1]heptane-1-carboxylic acid] | 347
COc1cc(/C(F)=C/c2cccc(-c3cccc(NC(=O)c4nc5c(n4C)CCN(CCC46CCC(C(=O)O)(CC4)C6)C5)c3Cl)c2Cl)ncc1CN1Cc2cccnc2C1 [Example 68, (Z)-4-(2-(2-((2,2′-dichloro-3′-(2-(5-((5,7-dihydro-6H-pyrrolo[3,4-b]pyridin-6-yl)methyl)-4-methoxypyridin-2-yl)-2-fluorovinyl)-[1,1′-biphenyl]-3-yl)carbamoyl)-1-methyl-1,4,6,7-tetrahydro-5H-imidazo [4,5-c]pyridin-5-yl)ethyl)bicyclo[2.2.1]heptane-1-carboxylic acid] | 954

Stronger by EC50, values ahead:

EC50 [nM] | Structure (SMILES)
137 | COc1cc(/C(F)=C/c2cccc(-c3cccc(NC(=O)c4nc5c(n4C)CCN(CCC46CCC(C(=O)O)(CC4)C6)C5)c3Cl)c2Cl)ncc1CN1CCCCC1 [Example 65, (Z)-4-(2-(2-((2,2′-dichloro-3′-(2-fluoro-2-(4-methoxy-5-(piperidin-1-ylmethyl)pyridin-2-yl)vinyl)-[1,1′-biphenyl]-3-yl)carbamoyl)-1-methyl-1,4,6,7-tetrahydro-5H-imidazo[4,5-c]pyridin-5-yl)ethyl) bicyclo[2.2.1]heptane-1-carboxylic acid]
134 | COc1cc(/C(F)=C/c2cccc(-c3cccc(NC(=O)c4nc5c(n4C)CCN(CCC46CCC(C(=O)O)(CC4)C6)C5)c3Cl)c2Cl)ncc1CN1CC[C@@H](F)C1 [Example 60, (R,Z)-4-(2-(2-((2,2′-dichloro-3′-(2-fluoro-2-(5-((3-fluoropyrrolidin-1-yl)methyl)-4-methoxypyridin-2-yl)vinyl)-[1,1′-biphenyl]-3-yl)carbamoyl)-1-methyl-1,4,6,7-tetrahydro-5H-imidazo[4,5-c]pyridin-5-yl)ethyl)bicyclo[2.2.1]heptane-1-carboxylic acid]
117 | COc1cc(/C(F)=C/c2cccc(-c3cccc(NC(=O)c4nc5c(n4C)CCN(CCC46CCC(C(=O)O)(CC4)C6)C5)c3Cl)c2Cl)ncc1CN1CCC2(CC(O)C2)C1 (stereo not drawn) [Example 62, (Z)-4-(2-(2-((2,2′-dichloro-3′-(2-fluoro-2-(5-((2-hydroxy-6-azaspiro [3.4]octan-6-yl)methyl)-4-methoxypyridin-2-yl)vinyl)-[1,1′-biphenyl]-3-yl)carbamoyl)-1-methyl-1,4,6,7-tetrahydro-5H-imidazo[4,5-c]pyridin-5-yl)ethyl)bicyclo[2.2.1]heptane-1-carboxylic acid]
116 | COc1cc(/C(F)=C/c2cccc(-c3cccc(NC(=O)c4nc5c(n4C)CCN(CCC46CCC(C(=O)O)(CC4)C6)C5)c3Cl)c2Cl)ncc1CN1CCC[C@H]1C(C)(C)O [Example 52, (S,Z)-4-(2-(2-((2,2′-dichloro-3′-(2-fluoro-2-(5-((2-(2-hydroxypropan-2-yl)pyrrolidin-1-yl)methyl)-4-methoxypyridin-2-yl)vinyl)-[1,1′-biphenyl]-3-yl)carbamoyl)-1-methyl-1,4,6,7-tetrahydro-5H-imidazo [4,5-c]pyridin-5-yl)ethyl)bicyclo[2.2.1]heptane-1-carboxylic acid]
113 | COc1cc(/C(F)=C/c2cccc(-c3cccc(NC(=O)c4nc5c(n4C)CCN(CCC46CCC(C(=O)O)(CC4)C6)C5)c3Cl)c2Cl)ncc1CN1CCC(C)(C)C1 [Example 64, (Z)-4-(2-(2-((2,2′-dichloro-3′-(2-(5-((3,3-dimethylpyrrolidin-1-yl)methyl)-4-methoxypyridin-2-yl)-2-fluorovinyl)-[1,1′-biphenyl]-3-yl)carbamoyl)-1-methyl-1,4,6,7-tetrahydro-5H-imidazo[4,5-c]pyridin-5-yl)ethyl)bicyclo[2.2.1]heptane-1-carboxylic acid]
72 | COc1cc(/C(F)=C/c2cccc(-c3cccc(NC(=O)c4nc5c(n4C)CCN(CCC46CCC(C(=O)O)(CC4)C6)C5)c3Cl)c2Cl)ncc1CN1C[C@@H](O)[C@H](F)C1 [Example 57, 4-(2-(2-((2,2′-dichloro-3′-((Z)-2-fluoro-2-(5-(((3R,4R)-3-fluoro-4-hydroxypyrrolidin-1-yl)methyl)-4-methoxypyridin-2-yl)vinyl)-[1,1-biphenyl]-3-yl)carbamoyl)-1-methyl-1,4,6,7-tetrahydro-5H-imidazo [4,5-c]pyridin-5-yl)ethyl)bicyclo[2.2.1]heptane-1-carboxylic acid]
61.4 | COc1cc(/C(F)=C/c2cccc(-c3cccc(NC(=O)c4nc5c(n4C)CCN(CCC46CCC(C(=O)O)(CC4)C6)C5)c3Cl)c2Cl)ncc1CN1CC[C@@H](C)C1 [Example 56, (R,Z)-4-(2-(2-((2,2′-dichloro-3′-(2-fluoro-2-(4-methoxy-5-((3-methylpyrrolidin-1-yl)methyl)pyridin-2-yl)vinyl)-[1,1′-biphenyl]-3-yl)carbamoyl)-1-methyl-1,4,6,7-tetrahydro-5H-imidazo[4,5-c]pyridin-5-yl)ethyl)bicyclo[2.2.1]heptane-1-carboxylic acid]
54.1 | COc1cc(/C(F)=C/c2cccc(-c3cccc(NC(=O)c4nc5c(n4C)CCN(CCC46CCC(C(=O)O)(CC4)C6)C5)c3Cl)c2Cl)ncc1CN1CCCC1(C)C [Example 67, (Z)-4-(2-(2-((2,2′-dichloro-3′-(2-(5-((2,2-dimethylpyrrolidin-1-yl)methyl)-4-methoxypyridin-2-yl)-2-fluorovinyl)-[1,1′-biphenyl]-3-yl)carbamoyl)-1-methyl-1,4,6,7-tetrahydro-5H-imidazo[4,5-c]pyridin-5-yl)ethyl)bicyclo[2.2.1]heptane-1-carboxylic acid]
